Among the test systems are HOP-92; OVCAR-5; EKVX; UACC-62; LOX IMVI; MOLT-4; HCT-116; K562; MDA-MB-231; SK-MEL-2; SF-539; SN12C; SK-MEL-28; CCRF-CEM; SK-MEL-5; MDA-N; SNB-19; HL-60; PC-3.
Holding throughout (assay): NCI tumour cell line growth inhibition, 48 h

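Briefly, cells in 96-well plates were exposed to five compound concentrations for 48 h, and endpoints were estimated by linear interpolation. At the GI50, growth is halved.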 Activity calls are given as the source filed them. No stated cut-off is given here; in the data, active = GI50 up to about 1.1 µM and inactive = higher.

On to `C=C1C(=O)OC2C1C(OC(=O)/C(C)=C/C)CC(O)(CCl)C1C(OC(C)=O)C=C(C)C21O` (configuration not stated), for which the GI50 is 13.1 µM (inactive) in the experiment on HOP-92; 17.3 µM (inactive) with OVCAR-5; 9.75 µM (inactive) in the experiment on EKVX; 14.3 µM (inactive) in the experiment with UACC-62; 6.49 µM (inactive) in the experiment with LOX IMVI; 3.69 µM (inactive) with MOLT-4. Also, the GI50 is 7.5 µM (inactive) in the experiment on HCT-116; 7.8 µM (inactive) with K562; 20.1 µM (inactive) in the experiment on MDA-MB-231; 15.9 µM (inactive) in the experiment on SK-MEL-2; 18.2 µM (inactive) in the experiment with SF-539; 16.2 µM (inactive) in the experiment with SN12C. The GI50 was 10.5 µM (inactive) in the experiment with SK-MEL-28; 2.79 µM (inactive) in the experiment with CCRF-CEM; 14.1 µM (inactive) with SK-MEL-5; 16.8 µM (inactive) in the experiment with MDA-N; > 42.9 µM (inactive) in the experiment with SNB-19; 1.89 µM (inactive) in the experiment on HL-60. Moreover, the GI50 in the experiment with PC-3 was 16.1 µM (inactive).
On to `CCCCC1CCCCCCc2[nH]c(/C=C3\N=C(c4ccc[nH]4)C=C3OC)cc21` (configuration not stated), for which the GI50 in the experiment on HOP-92 is < 0.0119 µM (active); in the experiment on OVCAR-5, 0.116 µM (active); in the experiment on EKVX, < 0.0167 µM (active); in the experiment with UACC-62, < 0.0127 µM (active); in the experiment with LOX IMVI, < 0.01 µM (active); in the experiment on MOLT-4 it was < 0.01 µM (active). Moreover, the GI50 was < 0.01 µM (active) in the experiment with HCT-116; < 0.01 µM (active) in the experiment with K562; < 0.024 µM (active) with MDA-MB-231; < 0.0124 µM (active) with SK-MEL-2; 0.0308 µM (active) with SF-539; < 0.0185 µM (active) with SN12C. Further, the GI50 in the experiment on SK-MEL-28 is < 0.0162 µM (active); with CCRF-CEM, < 0.01 µM (active); with SK-MEL-5, 0.0128 µM (active); in the experiment on MDA-N it was < 0.0139 µM (active); with SNB-19, 0.151 µM (active); in the experiment with HL-60, < 0.01 µM (active). For the same compound, in the experiment on PC-3, the GI50 was < 0.0119 µM (active).
In the case of `CC(=O)NC1=C(C)C(=O)c2c(nc3n2CC[C@H]3OC(C)=O)C1=O`, the GI50 with HOP-92 was 0.416 µM (active); in the experiment on OVCAR-5, 2.96 µM (inactive); in the experiment with EKVX, 5.25 µM (inactive); with UACC-62 it was 1.69 µM (inactive); in the experiment with LOX IMVI it was 0.718 µM (active); in the experiment with MOLT-4, 0.243 µM (active). Further, the GI50 with HCT-116 is 1.3 µM (inactive); with K562, 1.12 µM (active); in the experiment with MDA-MB-231 it was 1.37 µM (inactive); in the experiment on SK-MEL-2, 1.41 µM (inactive); in the experiment on SF-539 it was 2.38 µM (inactive); with SN12C it was 1.49 µM (inactive). Moreover, the GI50 with SK-MEL-28 is 2.22 µM (inactive); in the experiment with CCRF-CEM it was 0.33 µM (active); in the experiment with SK-MEL-5, 3.09 µM (inactive); in the experiment with MDA-N, 0.628 µM (active); in the experiment with SNB-19, 5.5 µM (inactive); in the experiment with HL-60 it was 0.834 µM (active). Besides, in the experiment with PC-3, the GI50 was 0.637 µM (active).
Regarding `O=C1N(C2CCCCC2)C(=O)N1C1CCCCC1`, the GI50 was 0.149 µM (active) in the experiment with HOP-92; 1.83 µM (inactive) in the experiment on OVCAR-5; 8.61 µM (inactive) in the experiment with EKVX; 0.21 µM (active) in the experiment with UACC-62; 0.209 µM (active) in the experiment on LOX IMVI; 0.0132 µM (active) with MOLT-4. For the same compound, the GI50 was 0.113 µM (active) in the experiment with HCT-116; 0.0875 µM (active) in the experiment on K562; 1.33 µM (inactive) with MDA-MB-231; 1.49 µM (inactive) with SK-MEL-2; 1.22 µM (inactive) with SF-539; 0.272 µM (active) in the experiment on SN12C. For the same compound, the GI50 in the experiment with SK-MEL-28 is 1.19 µM (inactive); in the experiment with CCRF-CEM it was 0.04 µM (active); with SK-MEL-5, 0.439 µM (active); with MDA-N, 3.97 µM (inactive); in the experiment on SNB-19 it was 1.46 µM (inactive); in the experiment on HL-60, < 0.01 µM (active). Besides, the GI50 in the experiment with PC-3 was 0.233 µM (active).
On to `CCc1[nH]c(=O)nc(N)c1-c1ccc(N2CCCCC2)c([N+](=O)[O-])c1`, for which the GI50 in the experiment with HOP-92, with OVCAR-5, with EKVX, in the experiment on UACC-62, in the experiment with LOX IMVI and in the experiment on MOLT-4 was > 100 µM (inactive) in each case. Further, the GI50 in the experiment on HCT-116 is > 100 µM (inactive); with K562 it was > 100 µM (inactive); in the experiment on MDA-MB-231, 98.4 µM (inactive); with SK-MEL-2 it was > 100 µM (inactive); in the experiment with SF-539 it was > 100 µM (inactive); in the experiment on SN12C, > 100 µM (inactive). In addition, the GI50 is > 100 µM (inactive) with SK-MEL-28; > 100 µM (inactive) with CCRF-CEM; > 100 µM (inactive) in the experiment on SK-MEL-5; > 100 µM (inactive) in the experiment with MDA-N; > 100 µM (inactive) in the experiment on SNB-19; 88.7 µM (inactive) in the experiment with HL-60. Further, the GI50 with PC-3 was > 100 µM (inactive).
Take `O=C(OCc1ccccc1)N(CCCCN(CCCNC(=O)C(F)(F)F)C(=O)OCc1ccccc1)CCCNC(=O)C(F)(F)F`: the GI50 was > 100 µM (inactive) in the experiment with HOP-92; > 100 µM (inactive) in the experiment on OVCAR-5; > 100 µM (inactive) with EKVX; > 100 µM (inactive) with UACC-62; > 100 µM (inactive) in the experiment on LOX IMVI; 8.87 µM (inactive) in the experiment on MOLT-4. The GI50 in the experiment on HCT-116, in the experiment with K562, in the experiment on MDA-MB-231, with SK-MEL-2, with SF-539 and with SN12C was > 100 µM (inactive) throughout. The GI50 with SK-MEL-28 is > 100 µM (inactive); with CCRF-CEM it was > 100 µM (inactive); in the experiment with SK-MEL-5, > 36.8 µM (inactive); in the experiment on MDA-N, > 100 µM (inactive); in the experiment on SNB-19 it was 4.2 µM (inactive); in the experiment on HL-60 it was > 100 µM (inactive). In addition, the GI50 with PC-3 was 36.9 µM (inactive).
With `COC(=O)C1=C(OC(=O)/C=C/c2ccc(Cl)cc2)C(C(=O)OC)[C@]2(O)[C@@H](C(=O)OC)[C@H]1C[C@@H](c1ccccc1)[C@@H]2C(=O)OC` (some centres not stated), the GI50 is 2.58 µM (inactive) with HOP-92; 17.7 µM (inactive) in the experiment on OVCAR-5; 3.85 µM (inactive) in the experiment with EKVX; 7.45 µM (inactive) in the experiment on UACC-62; 7.19 µM (inactive) with LOX IMVI; 3.76 µM (inactive) in the experiment on MOLT-4. Besides, the GI50 in the experiment with HCT-116 is 3.53 µM (inactive); in the experiment with K562, 4.54 µM (inactive); with MDA-MB-231, 12.4 µM (inactive); with SK-MEL-2 it was 6.27 µM (inactive); with SF-539, 4.68 µM (inactive); in the experiment with SN12C, 7.36 µM (inactive). The GI50 in the experiment on SK-MEL-28 was 17.3 µM (inactive); in the experiment on CCRF-CEM, 3.31 µM (inactive); with SK-MEL-5, 4.55 µM (inactive); in the experiment on MDA-N it was 3.58 µM (inactive); with SNB-19, 6.65 µM (inactive); with HL-60 it was 3.81 µM (inactive). The GI50 in the experiment with PC-3 was 5.65 µM (inactive).
On to `SC1=C2CCCCCC2=NC2(CCCCCC2)S1`, for which the GI50 in the experiment on HOP-92 is 21.1 µM (inactive); in the experiment on OVCAR-5 it was 30.5 µM (inactive); in the experiment on EKVX, 5.62 µM (inactive); in the experiment with UACC-62, 26.8 µM (inactive); with LOX IMVI, 29.4 µM (inactive); with MOLT-4, 19 µM (inactive). Moreover, the GI50 is 26.9 µM (inactive) in the experiment with HCT-116; 12.2 µM (inactive) with K562; 36.6 µM (inactive) with MDA-MB-231; 6.3 µM (inactive) in the experiment with SK-MEL-2; 35.1 µM (inactive) in the experiment on SF-539; 37.3 µM (inactive) with SN12C. Also, the GI50 with SK-MEL-28 is 72.9 µM (inactive); in the experiment on CCRF-CEM, 33.6 µM (inactive); in the experiment on SK-MEL-5 it was 11.2 µM (inactive); in the experiment on MDA-N, 33.4 µM (inactive); with SNB-19, 25.8 µM (inactive); with HL-60, 12.1 µM (inactive). Besides, the GI50 with PC-3 was 27.5 µM (inactive).

Source of the values: ChEMBL document CHEMBL1201862, “PubChem BioAssay data set” (2004).
